Data as given in article PMC10321576, “Cyclic peptides target the aromatic cage of a PHD-finger reader domain to modulate epigenetic protein function” (Chemical Science, 2023).
Peptide text beside a SMILES is read from it.

Target: T1, KDM7B PHD-finger (Homo sapiens, UniProt Q9UPP1)
T1 construct: KDM7B 1-66; His-tag (C); made in house
T1 sequence (Q9UPP1 1-66 isoform Q9UPP1-2): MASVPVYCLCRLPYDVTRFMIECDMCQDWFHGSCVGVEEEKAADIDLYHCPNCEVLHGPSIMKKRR
Assay: Protein NMR 1H-15N HSQC chemical shift perturbation
Assay type: binding
Text: To better elucidate OC9 interactions at a single residue level, we conducted protein NMR studies using isotopically labelled PHD-finger.[48] Comparison of ^1H–^15N HSQC spectra for isotopically labelled apo and OC9-bound protein (Fig. 4a), independently assigned using ^13C,^15N 3D experiments (Fig. S21, NMR ESI ^†), identified 24 out of 66 protein residues with significant (standard deviation, s > 1) chemical shift perturbation (CSP, Δδ) of their backbone amides (Fig. 4b).
(a) ^1H–^15N HSQC of KDM7B PHD-finger in the apo (black) or bound forms with OC9 (purple, 1 : 1) or H3_1–21K4me3 (green, 3 : 1). (b) ^1H and ^15N chemical shift changes for apo vs. + OC9 were combined and weighted to give chemical shift perturbation (CSP) (Δδ) values. Standard deviation (σ) of Δδ are indicated (>1 pink, >2 purple). (c) TALOS+ predicts similar secondary structure elements in apo and OC9-bound solution protein complexes (light grey) to those found in PDB ID 3KV4 (dark grey). […] (e) Shielded ^1H-NMR signals centred around −0.5 ppm belonging to the OC9 V10 γ-methyl groups are observed in some OC9–PHD complexes, but not in apo protein, or complexes with OC9 V10A and OC9 V10DV. The V10^OC9 γ-methyl signals have NOE interactions (black semi-circles) with the W29^PHD indole, which itself is shielded upon binding of OC9 (indicated by ΔδH values).

CC(C)[C@@H]1NC(=O)[C@H](CO)NC(=O)[C@@H]2CCCN2C(=O)[C@H](Cc2ccc(O)cc2)NC(=O)[C@@H]2CCCN2C(=O)[C@H](Cc2c[nH]cn2)NC(=O)[C@H]([C@@H](C)O)NC(=O)[C@H](C)NC(=O)[C@H](Cc2ccc(O)cc2)NC(=O)[C@H](Cc2ccc(O)cc2)NC(=O)CSC[C@@H](C(N)=O)NC(=O)[C@H]([C@@H](C)O)NC(=O)[C@H](CCCNC(=N)N)NC(=O)[C@H](Cc2ccccc2)NC1=O [L3A] (HELM PEPTIDE1{[O=C(C[*:3])[*:2]].Y.Y.A.T.H.P.Y.P.S.V.F.R.T.C.[am]}$PEPTIDE1,PEPTIDE1,1:R3-15:R3$$$V2.0; C-terminus assumed)
CSP Ala2 (residue Ala2 amide 1H-15N, Free PHD vs PHD+peptide): 0.0068 | CSP Ala2, OC9 vs OC9 L3A (residue Ala2 amide, PHD+OC9 vs PHD+OC9 L3A): 0.0102 | CSP Ala42 (residue Ala42 amide 1H-15N, Free PHD vs PHD+peptide): 0.4335 | CSP Ala42, OC9 vs OC9 L3A (residue Ala42 amide, PHD+OC9 vs PHD+OC9 L3A): 0.0214 | CSP Ala43 (residue Ala43 amide 1H-15N, Free PHD vs PHD+peptide): 0.4214 | CSP Ala43, OC9 vs OC9 L3A (residue Ala43 amide, PHD+OC9 vs PHD+OC9 L3A): 0.0343 | CSP Arg11 (residue Arg11 amide 1H-15N, Free PHD vs PHD+peptide): 0.0169 | CSP Arg11, OC9 vs OC9 L3A (residue Arg11 amide, PHD+OC9 vs PHD+OC9 L3A): 0.0087 | CSP Arg18 (residue Arg18 amide 1H-15N, Free PHD vs PHD+peptide): 0.1337 | CSP Arg18, OC9 vs OC9 L3A (residue Arg18 amide, PHD+OC9 vs PHD+OC9 L3A): 0.0146 | CSP Arg65 (residue Arg65 amide 1H-15N, Free PHD vs PHD+peptide): 0.0010 | CSP Arg65, OC9 vs OC9 L3A (residue Arg65 amide, PHD+OC9 vs PHD+OC9 L3A): 0.0115 | CSP Arg66 (residue Arg66 amide 1H-15N, Free PHD vs PHD+peptide): 0.0045 | CSP Arg66, OC9 vs OC9 L3A (residue Arg66 amide, PHD+OC9 vs PHD+OC9 L3A): 0.0034 | CSP Asn52 (residue Asn52 amide 1H-15N, Free PHD vs PHD+peptide): 0.0619 | CSP Asn52, OC9 vs OC9 L3A (residue Asn52 amide, PHD+OC9 vs PHD+OC9 L3A): 0.0178 | CSP Asp15 (residue Asp15 amide 1H-15N, Free PHD vs PHD+peptide): 0.2511 | CSP Asp15, OC9 vs OC9 L3A (residue Asp15 amide, PHD+OC9 vs PHD+OC9 L3A): 0.0129 | CSP Asp24 (residue Asp24 amide 1H-15N, Free PHD vs PHD+peptide): 0.0765 | CSP Asp24, OC9 vs OC9 L3A (residue Asp24 amide, PHD+OC9 vs PHD+OC9 L3A): 0.0087 | CSP Asp28 (residue Asp28 amide 1H-15N, Free PHD vs PHD+peptide): 0.1850 | CSP Asp28, OC9 vs OC9 L3A (residue Asp28 amide, PHD+OC9 vs PHD+OC9 L3A): 0.0277 | CSP Asp44 (residue Asp44 amide 1H-15N, Free PHD vs PHD+peptide): 0.1299 | CSP Asp44, OC9 vs OC9 L3A (residue Asp44 amide, PHD+OC9 vs PHD+OC9 L3A): 0.0065 | CSP Asp46 (residue Asp46 amide 1H-15N, Free PHD vs PHD+peptide): 0.1937 | CSP Asp46, OC9 vs OC9 L3A (residue Asp46 amide, PHD+OC9 vs PHD+OC9 L3A): 0.0214 | CSP Cys8 (residue Cys8 amide 1H-15N, Free PHD vs PHD+peptide): 0.2230 | CSP Cys8, OC9 vs OC9 L3A (residue Cys8 amide, PHD+OC9 vs PHD+OC9 L3A): 0.0115 | CSP Cys10 (residue Cys10 amide 1H-15N, Free PHD vs PHD+peptide): 0.0457 | CSP Cys10, OC9 vs OC9 L3A (residue Cys10 amide, PHD+OC9 vs PHD+OC9 L3A): 0.0102 | CSP Cys23 (residue Cys23 amide 1H-15N, Free PHD vs PHD+peptide): 0.1510 | CSP Cys23, OC9 vs OC9 L3A (residue Cys23 amide, PHD+OC9 vs PHD+OC9 L3A): 0.0210 | CSP Cys26 (residue Cys26 amide 1H-15N, Free PHD vs PHD+peptide): 0.1657 | CSP Cys26, OC9 vs OC9 L3A (residue Cys26 amide, PHD+OC9 vs PHD+OC9 L3A): 0.0115 | CSP Cys34 (residue Cys34 amide 1H-15N, Free PHD vs PHD+peptide): 0.0274 | CSP Cys34, OC9 vs OC9 L3A (residue Cys34 amide, PHD+OC9 vs PHD+OC9 L3A): 0.0065 | CSP Cys50 (residue Cys50 amide 1H-15N, Free PHD vs PHD+peptide): 0.0600 | CSP Cys50, OC9 vs OC9 L3A (residue Cys50 amide, PHD+OC9 vs PHD+OC9 L3A): 0.0129 | CSP Cys53 (residue Cys53 amide 1H-15N, Free PHD vs PHD+peptide): 0.0573 | CSP Cys53, OC9 vs OC9 L3A (residue Cys53 amide, PHD+OC9 vs PHD+OC9 L3A): 0.0065 | CSP Gln27 (residue Gln27 amide 1H-15N, Free PHD vs PHD+peptide): 0.1418 | CSP Gln27, OC9 vs OC9 L3A (residue Gln27 amide, PHD+OC9 vs PHD+OC9 L3A): 0.0110 | CSP Glu22 (residue Glu22 amide 1H-15N, Free PHD vs PHD+peptide): 0.1432 | CSP Glu22, OC9 vs OC9 L3A (residue Glu22 amide, PHD+OC9 vs PHD+OC9 L3A): 0.0223 | CSP Glu38 (residue Glu38 amide 1H-15N, Free PHD vs PHD+peptide): 0.1564 | CSP Glu38, OC9 vs OC9 L3A (residue Glu38 amide, PHD+OC9 vs PHD+OC9 L3A): 0.0388 | CSP Glu39 (residue Glu39 amide 1H-15N, Free PHD vs PHD+peptide): 0.2246 | CSP Glu39, OC9 vs OC9 L3A (residue Glu39 amide, PHD+OC9 vs PHD+OC9 L3A): 0.0231 | CSP Glu40 (residue Glu40 amide 1H-15N, Free PHD vs PHD+peptide): 0.1065 | CSP Glu40, OC9 vs OC9 L3A (residue Glu40 amide, PHD+OC9 vs PHD+OC9 L3A): 0.0110 | CSP Glu54 (residue Glu54 amide 1H-15N, Free PHD vs PHD+peptide): 0.0548 | CSP Glu54, OC9 vs OC9 L3A (residue Glu54 amide, PHD+OC9 vs PHD+OC9 L3A): 0.0034 | CSP Gly32 (residue Gly32 amide 1H-15N, Free PHD vs PHD+peptide): 0.1585 | CSP Gly32, OC9 vs OC9 L3A (residue Gly32 amide, PHD+OC9 vs PHD+OC9 L3A): 0.0220 | CSP Gly36 (residue Gly36 amide 1H-15N, Free PHD vs PHD+peptide): 0.1019 | CSP Gly36, OC9 vs OC9 L3A (residue Gly36 amide, PHD+OC9 vs PHD+OC9 L3A): 0.0055 | CSP Gly58 (residue Gly58 amide 1H-15N, Free PHD vs PHD+peptide): 0.0491 | CSP Gly58, OC9 vs OC9 L3A (residue Gly58 amide, PHD+OC9 vs PHD+OC9 L3A): 0.0055 | CSP His31 (residue His31 amide 1H-15N, Free PHD vs PHD+peptide): 0.2104 | CSP His31, OC9 vs OC9 L3A (residue His31 amide, PHD+OC9 vs PHD+OC9 L3A): 0.0065 | CSP His49 (residue His49 amide 1H-15N, Free PHD vs PHD+peptide): 0.0983
